Consider three compounds from US20080233179A1, “TRANSDERMAL COMPOSITION HAVING ENHANCED COLOR STABILITY” (priority 2006, published 2008).

Structures can show the parent of a compound that is named as a salt.

For data set [1] the following is noted: levodopa taken alone; cited from earlier work.
The conditions of data set [2]: three times a day, pramipexole dihydrochloride tablets (Wright et al. 1997); cited from earlier work.
In data set [3] the test system is D2 subfamily of dopamine receptors. The following applies: in vitro; cited from earlier work.
A further data set concerns the target D3 receptors (Homo sapiens, UniProt P35462). The following applies: cited from earlier work.
Data set [4] is described as follows: Lowest effective concentration of sodium metabisulfite on pramipexole color stability (Example 4). The data set is classed as physicochemical. The following applies: pramipexole hydrochloride 2.00% (FBE) hydro-alcoholic mixture at apparent pH around 8.0. As to the method: A formulation free of antioxidants served as a blank reference (Formulation F).
In parallel, samples stored at 40° C. in a climatic chamber (C-20/600, Climat Temperatur System, Hechingen, Germany) for 1 month were assessed for color as well. […] The formulation containing the lowest level of sodium metabisulfite (0.10% wt, formulation C) was ranked “BY2”. All the other formulations were colorless.

D3 receptors, sequence (P35462 whole entry): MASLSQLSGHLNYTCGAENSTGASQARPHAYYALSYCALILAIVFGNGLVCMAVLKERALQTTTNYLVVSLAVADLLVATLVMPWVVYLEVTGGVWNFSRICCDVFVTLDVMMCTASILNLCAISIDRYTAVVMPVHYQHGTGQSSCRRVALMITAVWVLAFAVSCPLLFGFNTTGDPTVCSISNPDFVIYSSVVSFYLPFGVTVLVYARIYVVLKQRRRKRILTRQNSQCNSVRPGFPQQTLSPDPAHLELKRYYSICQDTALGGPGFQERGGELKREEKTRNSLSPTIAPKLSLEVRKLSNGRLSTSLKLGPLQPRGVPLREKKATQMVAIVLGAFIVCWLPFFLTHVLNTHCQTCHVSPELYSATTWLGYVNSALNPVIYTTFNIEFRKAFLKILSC

Consider `N[C@@H](Cc1ccc(O)c(O)c1)C(=O)O` [levodopa], for which the “fraction of the drug broken down into dopamine before it reaches the brain” value in data set [1] was “about 95%”.
Regarding `CCCN[C@H]1CCc2nc(N)sc2C1` [pramipexole, (S)-2-amino-4,5,6,7-tetrahydro-6-(propylamino)benzothiazole dihydrochloride monohydrate], the steady-state pharmacokinetic characteristics entry in data set [2] was “linear up to a daily dose of 4.5 mg”. In addition, the “intrinsic activity at the D2 subfamily of dopamine receptors” value in data set [3] was “full intrinsic activity”. The “affinity for D3 receptors relative to D2 or D4 receptor subtypes” value at D3 receptors is “higher affinity than to D2 or D4 receptor subtypes”.
Regarding `O=S([O-])S(=O)(=O)[O-].[Na+].[Na+]` [sodium metabisulfite, Sodium metabisulfite], the “minimal amount of sodium metabisulfite preventing color degradation” value in data set [4] was 0.2 % wt.
